What was measured:
[1] = system: hIgG; experiment: ELISA of soluble fractions of native and mutated WW domains against hIgG; format: binding; settings: human IgG, soluble fraction, E6 detected with anti-HA-HRP, E6_M2 and Rosetta extract with anti-His-HRP, ABTS
Description: The soluble fraction of 100 mL cultures (100 μL) was used for ELISA against hIgG, as described in ([Dias et al., 2025]). Briefly, the target hIgG was immobilized (1 μg/well) in 0.1 M Sodium Bicarbonate pH 8.6 in Immuno Maxisorp ELISA plates (Thermo Fisher), overnight at 4 °C. In the next day, the unbound hIgG was removed, and the wells washed with PBS1x. To the wells was added the blocking solution – 5% (v/v) Soya Milk in PBS 1x and incubated for 1 h at room temperature. The wells were washed and incubated with 100 µL of soluble fraction (∼0.065 mg/mL total protein) at room temperature for 2 h.
The unbound WW domains were removed, and the wells were washed using 4 times PBS1x-0.05% Tween 20 and 1 time with PBS1x. For detection was used 1:1,000 anti-His-HRP conjugated antibody (MA1-21315-HRP, Invitrogen) in 1% (v/v) Soya Milk in PBS1x and incubated for 1 h at RT, after that the wells were washed with 5x PBS1x. The detection occurred with ABTS (2,2′-azino-bis(3-ethylbenzothiazoline-6-sulfonic acid) ready solution (11684302001, Roche), which was incubated in the dark for 1 h at 37 °C. Finally, the results were analysed in a microplate reader (Tecan) with appropriate filter at Abs405nm.
Figure S6 – Production and signal characterization of mutated versions. A – Tris-Tricine gels after cell lysis of the WW prototype sequence (WWp, band at ~8KDa), mutated WWp5_4 scaffold (WWp5_4_M2, band at ~8 kDa) and mutated E6 (E6_M2, band at ~ 12kDa). Samples were normalized 90µg total protein/lane. M - Precision Plus Protein™ Dual Xtra Prestained, Biorad; SF – soluble fraction; ISF – insoluble fraction. B1, B2, and B3 indicate production batchs in 1L culture, except for WWp B1 – 100 mL, WWp_5_4 B2 – 900 mL. Stained with Simplyblue. […] The detection of the clones was made with anti-His conjugated antibody with HRP and detected with ABTS as substrate.
Figure S7 – Comparison between ELISA signal of E6 versus E6_M2. […] The expression levels were detected by direct coating of the microplate well with the soluble fraction of the extract. […] All were detected with ABTS as substrate.

[2] = Partition of expressed E6 between soluble and insoluble fraction; format: physicochemical; settings: E. coli Rosetta (DE3), supplementation with L-arginine / L-glutamic acid (tests E and H), Tris-Tricine gel
Description: The gene corresponding to the chosen E6 sequence was cloned according to the detail information in Supplementary Material. The bacterial clones with the insert DNA were selected for protein expression in E. coli Rosetta (DE3) cells. For this purpose, the DNA was purified with NZYMiniprep kit and was used for transformation onto E. coli Rosetta competent cells following the protocol of the manufacturer. For the protein expression, a pre-inoculum was prepared adding 5 µL of the transformed colonies glycerol stock in 5 mL LB medium containing ampicillin (vector resistance) and […] (strain resistance). After 6 h of incubation, 1 mL of the culture was added to 100 mL of LB medium and was incubated overnight at 37 °C at 225 rpm. On the following day, 10 mL of the culture was inoculated onto 1 L of LB medium and was incubated at 37 °C at 225 rpm. […]
The WWp5_4 scaffold is composed by 42 amino acid residues with a molecular weight of approximately 5 kDa. […] The protein expression profile was evaluated under normal expression conditions (without supplementation of amino acids, test A) and a strong band at ∼ 5 kDa is visible (Supplementary Figure S3A). […] To assess whether test E or test H has higher content of soluble E6, bacterial cells were lysed and the soluble supernatant analysed. […]

SMGLPPGWDEYKT RRFKL GKTYYYNH HILS KTSTWTDPRMSS [Clone E6]
binding signal relative to negative control (E. coli Rosetta extract) [1]: 1.5 times
soluble fraction of expressed protein [2]: 16%

Reference: paper PMC12647017, “Discovery and optimization of a synthetic small protein domain targeting antibodies” (Frontiers in Bioengineering and Biotechnology, 2025)
